Test results published in US6933312B2, “Pyrazole derivatives” (Agouron Pharmaceuticals, Inc., priority 2002, dated 2005).
pIC50: −log10 of the molar value.

Columns and labels:
[1] = target: T1, purified recombinant HIV-1 reverse transcriptase (Human immunodeficiency virus type 1 group M subtype B, UniProt P04585); assay: Inhibition of HIV-1 Reverse Transcriptase Enzyme; assay type: biochemical; settings: Poly(rA)-oligo(dT) [3H]-SPA or [3H]-flashplate enzyme assay; 5% final DMSO
T1 construct: purified recombinant HIV-1 reverse transcriptase (RT, EC, 2.7.7.49); made in house; host or cells: Escherichia coli
Description: The activity of the compounds of the invention as reverse transcriptase inhibitors may be measured using the following assay.
Inhibition of HIV-1 Reverse Transcriptase Enzyme
Using purified recombinant HIV-1 reverse transcriptase (RT, EC, 2.7.7.49) obtained by expression in Escherichia Coli, a 96-well plate assay system is established for assaying a large number of samples using either the Poly(rA)-oligo(dT) Reverse Transcriptase [3H]-SPA enzyme assay system (Amersham NK9020) or the [3H]-flashplate enzyme assay system (NEN—SMP 103) and following the manufacturer's recommendations. The compounds are dissolved in 100% DMSO and diluted with the appropriate buffer to a 5% final DMSO concentration. The inhibitory activity is expressed in percent inhibition relative to DMSO control.

Row | Compound | melting point | pIC50 [1]
1 | Cc1n[nH]c(CN2Cc3ccccc3C2=O)c1Oc1cc(C#N)cc(C#N)c1 [Example 4, 5-[3-Methyl-5-(1-oxo-1,3-dihydro-isoindol-2-ylmethyl)-1H-pyrazol-4-yloxy]-isophthalonitrile] | 247 to 248 °C | 6.30
2 | Cc1n[nH]c(CN2Cc3ncccc3C2=O)c1Oc1cc(Cl)cc(C#N)c1 | 225 to 227 °C | –
3 | Cc1n[nH]c(CN2Cc3ccccc3C2=O)c1Oc1cc(Cl)cc(C#N)c1 [Example 1, 3-Chloro-5-[3-methyl-5-(1-oxo-1,3-dihydro-isoindol-2ylmethyl)-1H-pyrazol-4-yloxy]-benzonitrile] | – | 7.12
